Results: ChEMBL document CHEMBL1136300, “Structure-activity relationship studies on 2-heteroaryl-4-arylimidazoles NPY5 receptor antagonists” (Bioorg Med Chem Lett, 2003)
Active and inactive are the calls of the source. The rule behind the calls is not given here.

How the values were obtained:
HMCB cell line = test: Compound was tested for [Ca2+] mobilization in NPY5 transfected human Bowes melanoma (HMCB) cell line.; type: functional, cell-based
[1] = biological target: T1, Neuropeptide Y receptor type 5 (Homo sapiens, UniProt Q15761); test: Binding affinity towards human neuropeptide Y receptor type 5 using [125I]-PYY as radioligand in baculovirus-infected Sf9 cells
T1 sequence (Q15761 whole entry): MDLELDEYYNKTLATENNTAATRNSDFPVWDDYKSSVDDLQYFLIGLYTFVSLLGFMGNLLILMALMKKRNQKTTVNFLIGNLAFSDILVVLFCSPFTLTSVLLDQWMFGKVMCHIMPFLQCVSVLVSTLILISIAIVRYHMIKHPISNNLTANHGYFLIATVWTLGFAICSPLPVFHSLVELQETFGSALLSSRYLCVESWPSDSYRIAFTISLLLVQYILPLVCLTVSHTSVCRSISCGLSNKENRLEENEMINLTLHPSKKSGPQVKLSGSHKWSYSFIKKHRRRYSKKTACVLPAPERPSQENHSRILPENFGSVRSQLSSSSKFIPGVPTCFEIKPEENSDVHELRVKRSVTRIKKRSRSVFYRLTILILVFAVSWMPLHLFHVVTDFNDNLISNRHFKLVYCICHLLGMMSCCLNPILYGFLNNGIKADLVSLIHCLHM

Rattus norvegicus [2] = organism: Rattus norvegicus; test: Food intake was measured for a 3-h period in 24-h food deprived rats;+/+ =significant reduction in food intake; type: functional, organism-based
Rattus norvegicus [3] = test: Overnight food intake was measured in rat model in which compound was dosed 2 hr prior to onset of the dark cycle;- =no significant reduction in food intake; type: functional, organism-based
Rattus norvegicus [4] = test: Locomotor activity in male Sprague-Dawley rats at 40 mg/kg oral dose; type: functional, organism-based; parameters: dose 40 mg/kg
Rattus norvegicus [5] = organism: Rattus norvegicus; test: Food intake was measured for a 3-h period in 24-h food deprived rats;+/- =significant reduction in food intake/- =no significant reduction in food intake; type: functional, organism-based
Rattus norvegicus [6] = test: Overnight food intake was measured in rat model in which compound was dosed 2 hr prior to onset of the dark cycle;+/- =significant reduction in food intake; type: functional, organism-based
Rattus norvegicus [7] = test: Concentration of compound in brain was determined following a dose of 40 mg/kg administered orally at 4 hr; type: functional, organism-based; parameters: dose 40 mg/kg
Rattus norvegicus [8] = test: Concentration of compound in brain was determined following a dose of 40 mg/kg administered orally at 8 hr; type: functional, organism-based; parameters: dose 40 mg/kg
Rattus norvegicus [9] = test: Concentration of compound in plasma was determined following a dose of 40 mg/kg administered orally at 1 hr; type: functional, organism-based; parameters: dose 40 mg/kg
Rattus norvegicus [10] = test: Concentration of compound in plasma was determined following a dose of 40 mg/kg administered orally at 2 hr; type: functional, organism-based; parameters: dose 40 mg/kg
Rattus norvegicus [11] = test: Concentration of compound in plasma was determined following a dose of 40 mg/kg administered orally at 4 hr; type: functional, organism-based; parameters: dose 40 mg/kg
Rattus norvegicus [12] = test: Concentration of compound in plasma was determined following a dose of 40 mg/kg administered orally at 8 hr; type: functional, organism-based; parameters: dose 40 mg/kg
Rattus norvegicus [13] = test: Concentration of compound in Cerebrospinal fluid(CSF) was determined following a dose of 40 mg/kg administered orally at 8 hr; type: functional, organism-based; parameters: dose 40 mg/kg
Rattus norvegicus [14] = test: Concentration of compound in brain was determined following a dose of 40 mg/kg administered orally at 1 hr; type: functional, organism-based; parameters: dose 40 mg/kg
Rattus norvegicus [15] = test: Overnight food intake was measured in rat model in which compound was dosed 2 hr prior to onset of the dark cycle; - =no significant reduction in food intake; type: functional, organism-based
Rattus norvegicus [16] = organism: Rattus norvegicus; test: Ratio of the concentrations of compound in Brain to that of Plasma was determined at 1 hr; type: functional
Rattus norvegicus [17] = organism: Rattus norvegicus; test: Ratio of the concentrations of compound in Brain to that of Plasma was determined at 4 hr; type: functional
Rattus norvegicus [18] = organism: Rattus norvegicus; test: Ratio of the concentrations of compound in Brain to that of Plasma was determined at 8 hr; type: functional
Rattus norvegicus [19] = organism: Rattus norvegicus; test: Ratio of the concentrations of compound in brain to that of Plasma was determined at 2 hr; type: functional
Rattus norvegicus [20] = test: Concentration of compound in brain was determined following a dose of 40 mg/kg administered orally at 2 hr; type: functional, organism-based; parameters: dose 40 mg/kg
Rattus norvegicus [21] = organism: Rattus norvegicus; test: Food intake was measured for a 3-h period in 24-h food deprived rats;+/- =significant reduction in food intake / - =no significant reduction in food intake; type: functional, organism-based

| SMILES | EC50 (HMCB cell line) [nM] | Ki [1] [nM] | further results |
| --- | --- | --- | --- |
| c1ccc(-c2c[nH]c(-c3ccccn3)n2)cc1 |  | 1450 |  |
| COc1cccc(-c2c[nH]c(-c3cccnc3)n2)c1 | 45 | 56 |  |
| Clc1ccc(-c2c[nH]c(-c3cccnc3)n2)cc1 |  | 16 | Activity (Rattus norvegicus [2]): Active; Activity (Rattus norvegicus [3]): inactive; Locomotor activity (Rattus norvegicus [4]): Active |
| N#Cc1ccc(-c2c[nH]c(-c3cccnc3)n2)cc1 |  | 3000 |  |
| Cc1[nH]c(-c2cccnc2)nc1-c1cccc(Cl)c1 | 40 | 19 |  |
| c1ccc(-c2c[nH]c(-c3ccccc3)n2)cc1 |  | 34 |  |
| c1ccc(-c2c[nH]c(-c3ccncc3)n2)cc1 |  | 1530 |  |
| Clc1ccc(-c2c[nH]c(-c3cccnc3)n2)cc1Cl |  | 4 | Activity (Rattus norvegicus [21]): inactive |
| Fc1ccc(-c2c[nH]c(-c3cccnc3)n2)cc1F |  | 34 |  |
| Cc1[nH]c(-c2cccnc2)nc1-c1ccc(Cl)cc1 |  | 69 |  |
| COc1ccc(-c2c[nH]c(-c3cccnc3)n2)cc1OC | 723 | 148 |  |
| Clc1ccc(-c2c[nH]c(-c3ccncc3)n2)cc1Cl |  | 3.5 |  |
| Clc1ccc(-c2c[nH]c(-c3cnccn3)n2)cc1Cl |  | 40 |  |
| Clc1ccc(-c2c[nH]c(-c3cc4ccccc4cn3)n2)cc1Cl |  | 4770 |  |
| Clc1ccc(-c2c[nH]c(-c3ccccn3)n2)cc1Cl |  | 30 |  |
| c1cncc(-c2nc(C3CCCCC3)c[nH]2)c1 | 36 | 231 |  |
| Clc1ccc(-c2c[nH]c(-c3nccc4ccccc34)n2)cc1Cl | 17 | 116 |  |
| Clc1ccc(-c2c[nH]c(-c3cnc4ccccc4c3)n2)cc1Cl |  | > 10000 |  |

Now from value to compound, other results behind:

| EC50 (HMCB cell line) [nM] | Ki [1] [nM] | SMILES | further results |
| --- | --- | --- | --- |
| 13 | 4.9 | FC(F)(F)Oc1cccc(-c2c[nH]c(-c3cccnc3)n2)c1 |  |
| 52 | 40 | Cc1ccccc1-c1c[nH]c(-c2cccnc2)n1 |  |
| 24 | 14 | Cc1cccc(-c2c[nH]c(-c3cccnc3)n2)c1 |  |
| 3.2 | 1.6 | FC(F)(F)c1cccc(-c2c[nH]c(-c3cccnc3)n2)c1 | Activity (Rattus norvegicus [5]): inactive; Activity (Rattus norvegicus [6]): Active; Locomotor activity (Rattus norvegicus [4]): Active |
|  | 8 | Clc1cccc(-c2c[nH]c(-c3cccnc3)n2)c1 | Activity (Rattus norvegicus [5]): inactive; Concentration (Rattus norvegicus [7]): 29 µM; Concentration (Rattus norvegicus [8]): 4 µM; Concentration (Rattus norvegicus [9]): 10 µM; Concentration (Rattus norvegicus [10]): 11 µM; Concentration (Rattus norvegicus [11]): 6.2 µM; Concentration (Rattus norvegicus [12]): 1.3 µM; Concentration (Rattus norvegicus [13]): 0.011 µM; Concentration (Rattus norvegicus [14]): 45 µM; Activity (Rattus norvegicus [15]): inactive; Ratio (Rattus norvegicus [16]): 4.4; Ratio (Rattus norvegicus [17]): 4.8; Ratio (Rattus norvegicus [18]): 5.3; Ratio (Rattus norvegicus [19]): 5.1; Concentration (Rattus norvegicus [20]): 56 µM |
| 39 | 27 | FC(F)(F)c1ccccc1-c1c[nH]c(-c2cccnc2)n1 |  |
|  | 37 | FC(F)(F)c1ccc(-c2c[nH]c(-c3cccnc3)n2)cc1 |  |
| 15 | 21 | Clc1ccccc1-c1c[nH]c(-c2cccnc2)n1 |  |
|  | 525 | c1ccc(-c2c[nH]c(-c3cccnc3)n2)cc1 |  |
|  | 210 | FC(F)(F)Oc1ccc(-c2c[nH]c(-c3cccnc3)n2)cc1 |  |
